{
  "source": "patent US7547759B2",
  "about": "“Induction of tumor immunity by variants of folate binding protein” (Board of Regents, The University of Texas System, priority 2001, dated 2009)",
  "key": {"[1]": {"system": "peripheral blood mononuclear cells (PBMC)", "test": "Expansion of PBMC stimulated with FBP peptide E39 and its variants (live cell counts)", "type": "cell-based, human", "text": "FIG. 4 illustrates expansion of PBMCs stimulated with FBP peptide E39 and its variants.\n(§1) To identify which of E39 variants induced higher cell expansion, PBMC from the same donor were stimulated three times with the corresponding peptide, and the resulting live cells were counted a week after each stimulation. […] Similar results were obtained with J65 in another donor (FIG. 5)."}, "[2]": {"system": "peripheral blood mononuclear cells (PBMC)", "test": "CTL activity in PBMC with multiple peptide stimulations", "type": "cell-based, human", "conditions": "for CTL activity: recognition of E39: healthy donor PBMC stimulated three times with the peptide, then restimulated with E39", "text": "FIG. 2B illustrates CTL activity in PBMC with multiple stimulations with J65 or E39.\nCTL activity can be assessed by methods described herein or as would be known to one of skill in the art. For example, CTLs may be assessed in freshly isolated peripheral blood mononuclear cells (PBMC), in a phytohaemaglutinin-stimulated IL-2 expanded cell line established from PBMC (Bernard et at., 1998) or by T cells isolated from a previously immunized subject and restimulated for 6 days with DC infected with an adenovirus vector containing antigen using standard 4 h 51^Cr release microtoxicity assays. In another fluorometric assay developed for detecting cell-mediated cytotoxicity, the fluorophore used is the non-toxic molecule ALAMARBLUE (dye) (Nociari et at., 1998). The ALAMARBLUE (dye) is fluorescently quenched (i.e., low quantum yield) until mitochondrial reduction occurs, which then results in a dramatic increase in the alamarBlue fluorescence intensity (i.e., increase in the quantum yield).\n(§2) To address the effects of FBP variants on induction of CTL activity, PBMC cultures from the healthy donor stimulated three times with J65 were split in three and restimulated with either E39 or J65 or J77. A control culture was made of the same PBMC stimulated three times with E39 and restimulated with E39 for the fourth time. […] It was recently reported that memory CTL reacting with the tumor Ag such as FBP are present in the blood of healthy individuals (Lee et al., 2000). These cells can be easily activated by stimulation with the corresponding peptide presented on dendritic cells (Kim et al., 1999). To evaluate the stimulating ability of the analogs J65 and J77, PBMC from a responding donor were stimulated with E39, J65 and J77."}, "[3]": {"system": "peripheral blood mononuclear cells (PBMC)", "test": "Specific IL-2 induction in PBMC by priming with E39 variants", "type": "cell-based, human", "conditions": "PBMC of responding donor; compared with wild-type peptide E39; FIG. 3", "text": "FIG. 3 illustrates specific interleukin 2 (IL-2) induction in PBMCs by priming with E39 variants.\nas §1"}, "HLA-A2": {"system": "HLA-A2", "test": "HLA-A2 stabilization by FBP epitope E39 variants", "type": "binding, human", "conditions": "FIG. 1; compared with wild-type E39", "text": "(§3) The HLA-A2 stabilizing ability of the variant peptides has also been determined (FIG. 1). […] In contrast, substitutions at position 1 increase the binding affinity of the peptide. The results in FIG. 2 show the cytolytic activity of J65-induced CTL compared with E39-induced CTL."}, "[4]": {"system": "peripheral blood mononuclear cells (PBMC)", "test": "IFN-γ induction in PBMC with multiple peptide stimulations", "type": "cell-based, human", "text": "FIG. 2A illustrates IFN-γ induction in peripheral blood mononuclear cells (PBMC) with multiple stimulations with J65 or E39.\nas §3, §2"}, "HLA-A2 (human)": {"target": "HLA-A2 (human)", "test": "HLA-A2 stabilization assay (FIG. 1)"}, "[5]": {"conditions": "same donor, stimulated three times with peptide, live cells counted a week after each stimulation, FIG. 4"}},
  "note": "Entries after “also recorded” stand apart in the source; their conditions may differ.",
  "data": [
    {"molecule": "EIWTFSYKV [J78, E39 variant H5→F]", "values": [
      {"measurement": "cell expansion of PBMC cultures", "setting": "[1]; another donor, FIG. 5", "value": "expanded, but at a slower rate"},
      {"measurement": "cell expansion of PBMC cultures", "setting": "[1]; [5]", "value": "proliferated slower than control cultures"}
    ]},
    {"molecule": "EIWTHSYKV [E39, reference compound]", "values": [
      {"measurement": "CTL activity: recognition of E39", "setting": "[2]", "value": "moderate weak recognition of E39"},
      {"measurement": "cell expansion of PBMC cultures", "setting": "[1]; another donor, FIG. 5", "value": "died after the third stimulation"},
      {"measurement": "cell expansion of PBMC cultures", "setting": "[1]; [5]", "value": "initially expanded faster than other cultures"}
    ]},
    {"molecule": "EIWTHSTKV [J77, E39 variant Y7→T]", "values": [
      {"measurement": "CTL activity", "setting": "[2]; healthy donor PBMC stimulated three times with J65 (3×J65), restimulated with the peptide", "value": "significantly lower CTL activity"},
      {"measurement": "IL-2 induction", "setting": "[3]", "value": "lower levels of IL-2"},
      {"measurement": "cell expansion of PBMC cultures", "setting": "[1]; another donor, FIG. 5", "value": "expanded, but at a slower rate"},
      {"measurement": "cell expansion of PBMC cultures", "setting": "[1]; [5]", "value": "proliferated slower than control cultures"}
    ]},
    {"molecule": "EIWTFSTKV [J65, E39 variant H5→F, Y7→T]", "values": [
      {"measurement": "HLA-A2 stabilizing ability", "setting": "HLA-A2", "value": "almost half of the stabilizing ability of E39"},
      {"measurement": "IFN-γ induction", "setting": "[4]; 3×J65 stimulated PBMC cultures restimulated with the peptide, FIG. 2", "value": "weaker inducer of IFN-γ"},
      {"measurement": "IFN-γ secretion elicited by wild-type epitope E39 in peptide-primed CTL", "setting": "[4]; CTL primed with the peptide, then stimulated with E39", "value": "higher"},
      {"measurement": "CTL activity: recognition of E39", "setting": "[2]", "value": "significantly higher recognition of E39; also recorded: higher CTL activity"},
      {"measurement": "IL-2 induction", "setting": "[3]", "value": "lower levels of IL-2"},
      {"measurement": "cell expansion of PBMC cultures", "setting": "[1]; another donor, FIG. 5", "value": "expanded faster"},
      {"measurement": "cell expansion of PBMC cultures", "setting": "[1]; [5]", "value": "increased faster in numbers"}
    ]},
    {"molecule": "EIWTFSTKV", "note": "[J65 (variant of FBP epitope E39, H5→F, Y7→T)]", "values": [
      {"measurement": "HLA-A2 stabilizing ability relative to E39", "setting": "HLA-A2 (human)", "value": "0.5 fold of E39"}
    ]}
  ]
}
